# From publication PMC12067145 (ACS Medicinal Chemistry Letters, 2025)
# Legend:
# [1] = molecular target: Cav1.2 (Homo sapiens, UniProt Q13936); experiment: Cardiac ion channel MPC selectivity panel; assay type: cell-based
# [2] = Mouse PBL (plasma:brain level) study; assay type: in vivo
# [3] = Plasma protein binding (human); assay type: in vitro ADME; settings: pH 7.4, read-out: PPB human (converted)
# Description: 0.3% DMSO - ΔRatio of 1 µM control compound)x100
# In vitro Plasma protein binding and Brain homogenate binding: Determination of fraction unbound (f u) in plasma was conducted in vitro via equilibrium dialysis using HTDialysis (HTD) membrane plates. The top half of the plate was filled with 100 uL of Dubelco’s Phosphate Buffered Saline, pH 7.4 (DPBS). Compounds were diluted into plasma from each species (5 µM final concentration), which was aliquoted in triplicate to the ‘bottom half’ of the prepared HTD plate wells. The HTD plate was sealed and incubated for 6 hours at 37 °C. Following incubation, each well (both top and bottom halves) were transferred (20 µL) to the corresponding wells of a 96-shallow-well (V-bottom) plate. The daughter plates were then matrix-matched (DPBS side wells received equal volume of plasma, and plasma side wells received equal volume of DPBS), and extraction solution (120 µL; acetonitrile containing 50 nM carbamazepine as IS) was added to all wells of both daughter plates to precipitate protein and extract test article. The plates were then sealed and centrifuged (3500 rcf) for 10 minutes at ambient temperature. Supernatant (60 µL) from each well of the daughter plates was then transferred to the corresponding wells of new daughter plates (96-shallow-well, V bottom) containing water (Milli-Q, 60 µL/well), and the plates were sealed in preparation for LC-MS/MS analysis (see LC-MS/MS analysis method below).
# The unbound fraction (f u) was calculated following the equation below, and mean values for each species were calculated from 3 replicates. A similar approach was used to determine the degree of brain homogenate binding, which employed the same methodology and procedure with the following modifications: 1) a final compound concentration of 1 μM was used, 2) naïve rat brains were homogenized in DPBS (1:3 composition of brain: DPBS, w/w) using a Mini-Bead Beater™ machine in order to obtain brain homogenate, which was then treated in the same manner as the plasma samples in the previously described plasma protein binding assay. Fraction unbound for both plasma and brain samples was determined using Equation 4.
# [4] = Liver microsome intrinsic clearance (mouse); assay type: in vitro ADME; settings: pH 7.4; mouse liver microsomes; read-out: LMS CLINT mouse
# Description: After a 5 min preincubation, the reaction was initiated by the addition of NADPH (1 mM). At selected time intervals between 0 ~ 60 min (e.g. 0, 3, 7, 15, 25, 45 and/or 60 min), aliquots were taken and subsequently placed into a 96-well plate containing cold acetonitrile with an internal standard (50 ng/mL carbamazepine). Plates were then centrifuged at 3000 rcf (4 °C) for 10 min, and the supernatant was transferred to a separate 96-well plate and diluted 1:1 with water for LC/MS/MS analysis. The in vitro half-life (T 1/2, min, Eq. 1), intrinsic clearance (CLint, mL/min/kg, Eq. 2), and subsequent predicted hepatic clearance (CLhep, mL/min/kg, Eq. 3) were determined employing the following equations: […]
# where k represents the slope from linear regression analysis of the natural log percent remaining of a test compound as a function of incubation time […]
# (2) CLint = in vitroT1/2 x mg microsomes x gram liver x kg body wt ascale-up factors: of 20 (human) or 45 (rat) or 87.5 (mouse) […]
# where Qh (hepatic blood flow, mL/min/kg) is 21 (human) or 70 (rat) or 90 (mouse).
# LC/MS/MS Bioanalysis of Samples from Plasma Protein Binding and Intrinsic Clearance […]
# Samples were analyzed on a Thermo Electron TSQ Quantum Ultra triple quad mass spectrometer (San Jose, CA) via electrospray ionization (ESI) with two Themo Electron Accella pumps (San Jose, CA), and a Leap Technologies CTC PAL autosampler (Carrboro, NC). Analytes were separated by gradient elution on a dual column system with two Thermo Hypersil Gold (2.1 x 30 mm, 1.9 µm) columns (San Jose, CA) thermostated at 40 °C. HPLC mobile phase A was 0.1% formic acid in water and mobile phase B was 0.1% formic acid in acetonitrile. The gradient started […]
# for 0.2 min; returned to 10% B in 0.1 min. The total run time was 1.3 min and the HPLC flow rate was 0.8 mL/min. While pump 1 ran the gradient method, pump 2 equilibrated the alternate column isocratically at 10% B. Compound optimization, data collection, and processing were performed using Thermo Electron's QuickQuan software (v2.3) and Xcalibur (v2.0.7 SP1). […]
# [5] = molecular target: Prostanoid EP4 (Homo sapiens, UniProt P35408); experiment: Eurofins lead profiling screen (radioligand binding)
# Chain of Prostanoid EP4 (P35408 whole entry): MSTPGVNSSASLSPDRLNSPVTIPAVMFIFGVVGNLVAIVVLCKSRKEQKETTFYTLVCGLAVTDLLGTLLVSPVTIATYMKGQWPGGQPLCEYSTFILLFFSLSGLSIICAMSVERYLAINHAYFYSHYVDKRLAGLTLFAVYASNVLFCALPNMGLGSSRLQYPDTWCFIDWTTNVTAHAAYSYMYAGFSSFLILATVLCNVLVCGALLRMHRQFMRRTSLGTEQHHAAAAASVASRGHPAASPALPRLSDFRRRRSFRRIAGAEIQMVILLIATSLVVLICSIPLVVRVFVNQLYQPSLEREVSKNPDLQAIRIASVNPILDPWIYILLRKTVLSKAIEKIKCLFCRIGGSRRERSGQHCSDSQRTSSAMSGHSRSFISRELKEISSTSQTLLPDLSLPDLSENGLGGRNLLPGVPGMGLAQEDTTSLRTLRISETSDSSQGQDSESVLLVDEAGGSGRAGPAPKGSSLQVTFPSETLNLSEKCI
# [6] = molecular target: Opiate δ1 (OP1, DOP) (Homo sapiens, UniProt P41143); experiment: as above
# Chain of Opiate δ1 (OP1, DOP) (P41143 whole entry): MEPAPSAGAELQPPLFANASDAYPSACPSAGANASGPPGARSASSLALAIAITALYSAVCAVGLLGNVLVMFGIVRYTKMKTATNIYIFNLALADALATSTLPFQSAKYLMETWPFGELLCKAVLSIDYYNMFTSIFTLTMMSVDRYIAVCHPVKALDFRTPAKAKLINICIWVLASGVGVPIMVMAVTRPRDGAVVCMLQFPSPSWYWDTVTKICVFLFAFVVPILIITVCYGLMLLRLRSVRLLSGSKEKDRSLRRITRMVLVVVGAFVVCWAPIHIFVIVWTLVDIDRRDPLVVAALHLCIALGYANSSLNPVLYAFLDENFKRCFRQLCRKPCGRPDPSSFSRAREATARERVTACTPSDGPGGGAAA
# [7] = molecular target: Leukotriene, Cysteinyl CysLT1 (Homo sapiens, UniProt Q9Y271); experiment: as above
# Chain of Leukotriene, Cysteinyl CysLT1 (Q9Y271 whole entry): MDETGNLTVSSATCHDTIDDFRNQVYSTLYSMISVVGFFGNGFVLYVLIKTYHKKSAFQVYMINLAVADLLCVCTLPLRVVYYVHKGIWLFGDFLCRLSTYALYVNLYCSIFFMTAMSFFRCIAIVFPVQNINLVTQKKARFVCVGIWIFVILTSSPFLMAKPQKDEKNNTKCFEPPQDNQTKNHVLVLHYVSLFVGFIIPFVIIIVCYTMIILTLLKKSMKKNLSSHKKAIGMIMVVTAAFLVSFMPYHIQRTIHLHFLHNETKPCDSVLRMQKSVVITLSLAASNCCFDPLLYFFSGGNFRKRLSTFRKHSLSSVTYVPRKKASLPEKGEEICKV
# [8] = molecular target: Cannabinoid CB1 (Homo sapiens, UniProt P21554); experiment: as above
# Chain of Cannabinoid CB1 (P21554 whole entry): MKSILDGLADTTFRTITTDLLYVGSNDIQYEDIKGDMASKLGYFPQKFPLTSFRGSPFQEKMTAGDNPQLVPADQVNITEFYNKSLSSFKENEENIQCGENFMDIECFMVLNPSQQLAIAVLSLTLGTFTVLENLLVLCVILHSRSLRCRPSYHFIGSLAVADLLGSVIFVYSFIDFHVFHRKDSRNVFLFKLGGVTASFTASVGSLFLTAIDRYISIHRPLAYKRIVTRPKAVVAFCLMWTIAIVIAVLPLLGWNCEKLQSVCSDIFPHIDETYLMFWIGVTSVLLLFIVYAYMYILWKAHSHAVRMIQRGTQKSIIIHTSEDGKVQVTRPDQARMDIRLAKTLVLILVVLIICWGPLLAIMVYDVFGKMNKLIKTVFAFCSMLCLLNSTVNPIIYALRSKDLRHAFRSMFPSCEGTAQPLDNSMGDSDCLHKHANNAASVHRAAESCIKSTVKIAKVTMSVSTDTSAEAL
# [9] = molecular target: Estrogen ERα (Homo sapiens, UniProt P03372); experiment: as above
# Chain of Estrogen ERα (P03372 whole entry): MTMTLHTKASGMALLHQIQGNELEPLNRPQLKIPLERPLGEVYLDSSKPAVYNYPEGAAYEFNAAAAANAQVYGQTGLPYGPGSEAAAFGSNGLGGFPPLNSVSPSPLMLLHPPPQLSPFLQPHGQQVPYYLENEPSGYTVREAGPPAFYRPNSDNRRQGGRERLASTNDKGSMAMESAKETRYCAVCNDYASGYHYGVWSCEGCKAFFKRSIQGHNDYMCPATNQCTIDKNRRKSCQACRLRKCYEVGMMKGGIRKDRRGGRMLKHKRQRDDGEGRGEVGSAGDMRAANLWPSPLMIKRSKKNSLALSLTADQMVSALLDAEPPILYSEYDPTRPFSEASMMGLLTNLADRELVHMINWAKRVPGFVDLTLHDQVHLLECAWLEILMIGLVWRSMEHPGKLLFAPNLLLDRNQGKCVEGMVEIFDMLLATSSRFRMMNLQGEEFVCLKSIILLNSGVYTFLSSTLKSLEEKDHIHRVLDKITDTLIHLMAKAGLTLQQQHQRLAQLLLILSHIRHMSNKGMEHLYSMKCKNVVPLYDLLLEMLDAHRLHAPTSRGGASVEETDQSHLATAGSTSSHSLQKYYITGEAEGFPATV
# [10] = molecular target: Serotonin (5-HT3) (Homo sapiens, UniProt P46098); experiment: as above
# Chain of Serotonin (5-HT3) (P46098 24-478): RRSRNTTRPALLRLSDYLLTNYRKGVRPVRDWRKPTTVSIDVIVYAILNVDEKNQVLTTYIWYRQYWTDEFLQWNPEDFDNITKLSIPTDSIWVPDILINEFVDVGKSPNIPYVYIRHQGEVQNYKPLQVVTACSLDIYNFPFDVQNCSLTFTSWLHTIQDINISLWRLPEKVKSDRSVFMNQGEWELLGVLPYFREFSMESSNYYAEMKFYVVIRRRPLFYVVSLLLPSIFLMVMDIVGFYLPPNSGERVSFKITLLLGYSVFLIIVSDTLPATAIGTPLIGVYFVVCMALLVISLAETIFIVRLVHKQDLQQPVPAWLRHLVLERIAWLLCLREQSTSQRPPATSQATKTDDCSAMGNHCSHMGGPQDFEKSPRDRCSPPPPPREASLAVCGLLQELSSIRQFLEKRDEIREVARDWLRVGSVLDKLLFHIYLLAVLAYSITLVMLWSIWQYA
# [11] = molecular target: Histamine H1 (Homo sapiens, UniProt P35367); experiment: as above
# Chain of Histamine H1 (P35367 whole entry): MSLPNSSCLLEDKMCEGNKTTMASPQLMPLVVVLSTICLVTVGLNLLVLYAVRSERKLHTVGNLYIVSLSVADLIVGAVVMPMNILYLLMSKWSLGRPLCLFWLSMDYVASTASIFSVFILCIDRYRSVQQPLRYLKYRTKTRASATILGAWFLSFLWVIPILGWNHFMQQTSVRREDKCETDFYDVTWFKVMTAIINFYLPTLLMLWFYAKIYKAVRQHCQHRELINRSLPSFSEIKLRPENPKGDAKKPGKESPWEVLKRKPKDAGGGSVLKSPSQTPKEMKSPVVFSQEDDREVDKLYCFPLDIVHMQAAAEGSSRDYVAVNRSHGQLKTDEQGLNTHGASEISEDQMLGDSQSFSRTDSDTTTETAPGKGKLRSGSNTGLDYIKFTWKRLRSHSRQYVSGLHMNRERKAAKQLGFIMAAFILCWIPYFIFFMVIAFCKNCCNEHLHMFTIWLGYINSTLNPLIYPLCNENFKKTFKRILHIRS
# [12] = molecular target: Transporter, Serotonin (SERT) (Homo sapiens, UniProt P31645); experiment: as above
# Chain of Transporter, Serotonin (SERT) (P31645 whole entry): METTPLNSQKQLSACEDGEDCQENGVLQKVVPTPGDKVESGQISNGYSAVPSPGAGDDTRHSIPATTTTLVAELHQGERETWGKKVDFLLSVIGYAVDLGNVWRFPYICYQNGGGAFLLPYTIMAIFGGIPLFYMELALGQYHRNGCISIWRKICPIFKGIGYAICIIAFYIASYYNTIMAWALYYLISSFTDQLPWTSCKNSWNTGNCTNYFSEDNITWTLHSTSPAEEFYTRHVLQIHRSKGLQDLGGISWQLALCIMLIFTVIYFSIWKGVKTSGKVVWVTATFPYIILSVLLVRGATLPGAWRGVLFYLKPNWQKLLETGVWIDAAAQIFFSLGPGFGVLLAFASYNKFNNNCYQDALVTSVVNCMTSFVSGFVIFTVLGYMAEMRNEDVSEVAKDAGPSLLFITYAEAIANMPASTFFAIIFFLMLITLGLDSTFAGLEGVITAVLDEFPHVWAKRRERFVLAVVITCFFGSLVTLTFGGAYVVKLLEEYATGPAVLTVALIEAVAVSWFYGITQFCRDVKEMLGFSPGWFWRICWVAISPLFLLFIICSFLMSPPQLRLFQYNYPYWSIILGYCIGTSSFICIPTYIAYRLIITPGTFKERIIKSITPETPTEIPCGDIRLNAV
# [13] = test system: GABAA, Flunitrazepam, Central; experiment: as above; set-up: species or system Rat
# [14] = molecular target: Opiate μ (OP3, MOP) (Homo sapiens, UniProt P35372); experiment: as above
# Chain of Opiate μ (OP3, MOP) (P35372 whole entry): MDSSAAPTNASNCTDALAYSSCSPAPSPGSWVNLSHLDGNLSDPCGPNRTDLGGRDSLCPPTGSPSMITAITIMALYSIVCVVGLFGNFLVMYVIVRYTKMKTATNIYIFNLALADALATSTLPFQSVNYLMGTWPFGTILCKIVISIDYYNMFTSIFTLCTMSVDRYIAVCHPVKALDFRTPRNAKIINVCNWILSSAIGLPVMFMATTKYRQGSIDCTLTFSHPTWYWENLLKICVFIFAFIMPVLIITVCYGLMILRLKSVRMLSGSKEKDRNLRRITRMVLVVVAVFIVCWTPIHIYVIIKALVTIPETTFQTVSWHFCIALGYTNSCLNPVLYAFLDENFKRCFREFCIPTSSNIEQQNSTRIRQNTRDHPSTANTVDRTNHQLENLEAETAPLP
Structure (SMILES),"% at 10 μM, Cav1.2 [1] [%]","Tmax ([2]; CD-1, brain, mouse, 10 mg/kg IP) [h]","Cmax total brain concentration ([2]; CD-1 male mouse, 10 mg/kg PO) [nM]","brain AUC ([2]; CD-1 male mouse, 10 mg/kg PO) [nM·h]","Tmax ([2]; brain, CD-1 male mouse, 10 mg/kg PO) [h]","Cmax total brain exposure ([2]; mouse, 10 mg/kg IP) [nM]","brain AUC ([2]; mouse, 10 mg/kg IP)","Cmax unbound brain ([2]; mouse, 10 mg/kg IP, based on mouse brain homogenate binding) [nM]","fraction unbound at 6 h, 5 µM [3]",CLint scaled at 1 µM [4] [mL/min/kg],inhibition at 10 µM [5] [%],inhibition at 10 µM [6] [%],inhibition at 10 µM [7] [%],inhibition at 10 µM [8] [%],inhibition at 10 µM [9] [%],inhibition at 10 µM [10] [%],inhibition at 10 µM [11] [%],inhibition at 10 µM [12] [%],% Inhibition at 10 µM [13] [%],inhibition at 10 µM [14] [%]
Cc1cc(C#Cc2ccc(F)cc2)cnc1NC(=O)c1cc(NC(=O)OC(C)(C)C)ccc1Cl [Compound 14c],< 50,4,252,2269,4,888,"12,261 h*nM",5.3,0.006,13,–,–,–,–,–,–,–,–,–,–
O=C(NCc1ccc(OC(F)(F)F)cc1F)c1ccc2ncnn2c1 [ONO-2920632],–,–,–,–,–,–,–,–,–,–,19,-8,-7,-23,8,-4,12,-3,-9,15
